Laboratory results published in patent publication US11434203B2, “8-hydroxyquinoline derivatives as diagnostic and therapeutic agents” (The General Hospital Corporation, priority 2015, dated 2022).
pEC50: −log10 of the molar value. Where two headings read alike, the source gives them in different places.

How the values were obtained:
[1] = target: T1, soluble Aβ oligomers (Human A 1-42) (Homo sapiens, UniProt P05067); assay: Aβ aggregation assay (bis-ANS): reversal of aggregation of soluble Aβ oligomers; assay type: biochemical; settings: for EC50: Aβ oligomers induced with ZnSO4 (15 μM), bis-ANS fluorescence, compounds 0.1 to 120 μM for 30 min, pH 7.4, read-out: EC50 (μM), reversal of aggregation of soluble Aβ oligomers
T1 construct: Human A 1-42 (China Peptide); purchased China Peptide
Excerpt: 4,4(′)-dianilino-1,1(′)-binaphthyl-5,5(′)-disulfonate (bis-ANS, Sigma) was used to assess whether compounds could reverse the aggregation of soluble A oligomers. (See, e.g., LeVine, H., 3rd, (2002) 4,4(′)-Dianilino-1,1(′)-binaphthyl-5,5(′)-disulfonate: report on non-beta-sheet conformers of Alzheimer's peptide beta(1-40), Arch Biochem Biophys 404, 106; Chen, W. T. et al., (2011) Distinct effects of Zn^2+, Cu^2+, Fe^3+, and Al^3+ on amyloid-beta stability, oligomerization, and aggregation: amyloid-beta destabilization promotes annular protofibril formation, J Biol Chem 286, 9646) Human A 1-42 (China Peptide) was dissolved in DMSO (Sigma) to a stock concentration of 1.5 mM. A ([…]) oligomers were induced with ZnSO4 (15 μM) at 26° C. for 30 min in a buffer (pH 7.4) containing Tris (50 mM), NaCl (150 mM) and bis-ANS (10 μM). Compounds (0.1 to 120 μM) dissolved in DMSO (Sigma) were added for 30 min. CQ and PBT2 were used as positive controls. Endpoint fluorescence (excitation=390 nm, emission=490 nm) was measured with a Flex Station (Molecular Devices) fluorescent plate reader. At each concentration, Aβ fluorescence was normalized to background fluorescence and then expressed as a percentage of vehicle treated control samples. […] Data represents the mean of at least 9 replicates from 3 experiments.

SH-SY5Y cells = assay: Ionophore assay: cellular metal levels by ICP-MS; assay type: cell-based; settings: 20 μM, 6 hours; for Cu uptake, fold increase than that of PBT2: FIG. 3; for Cu uptake compared to 8HQ: FIG. 1
Experimental: Cells were maintained at 37° C. with 5% CO2 and passaged every 3-4 days. Compounds (10 mM) were solubilized in DMSO (Sigma). CQ and PBT2 were used as positive controls. Cells were treated with growth media supplemented with each compound ([…]) or vehicle for 6 hours. Cells were harvested and metal levels were measured with Inductively-Coupled Plasma Mass Spectrometry (Varian), as previously described. […] Data represents the mean and S.E.M. of at least 9 replicates from 3 experiments. A oneway ANVOA with Fisher's LSD test was used to determine statistical differences relative to control (Prism 6, Graphpad).
Dashed line indicates control level. SH-SY5Y cells treated were treated with each compound (20 μM) for 6 hours and cellular metal levels were measured with ICP-MS.
(§1) SH-SY5Y cells treated were treated with each compound (20 μM) for 6 hours and cellular metal levels were measured with ICP-MS. Dashed line indicates control level.
as §1

AD patients = settings: pilot phase II clinical trial, cited from earlier work
[2] = tested on: patients with Huntington's disease and patients with AD; settings: phase II clinical trials; cited from earlier work

T1 sequence (P05067 672-713): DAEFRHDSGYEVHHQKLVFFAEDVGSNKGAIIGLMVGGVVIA

SMILES | EC50 [1] [µM] | also measured
Oc1ccccc1/N=C/c1ccc(F)cc1 [Compound 10] | 15.4 | –
CN(Cc1cn(CCF)nn1)Cc1ccc2c(Cl)cc(Cl)c(O)c2n1 [Compound 28, 5,7-dichloro-2-((((1-(2-fluoroethyl)-1H-1,2,3-triazol-4-yl)methyl)(methyl)amino)methyl)quinolin-8-ol] | 2.3 | Cu uptake, fold increase than that of PBT2 (SH-SY5Y cells): 10 fold
CN(Cc1cn(CCCCF)nn1)Cc1ccc2c(Cl)cc(Cl)c(O)c2n1 [Compound 30, 5,7-dichloro-2-((((1-(4-fluorobutyl)-1H-1,2,3-triazol-4-yl)methyl)(methyl)amino)methyl)quinolin-8-ol] | 2.8 | Cu uptake, fold increase than that of PBT2 (SH-SY5Y cells): 8 fold
Oc1c(F)cc(Cl)c2cccnc12 [Compound 12, 5-chloro-7-fluoro-8-hydroxyquinoline] | 4.9 | –
Oc1cccc2cc(F)cnc12 [Compound 6] | – | Cu uptake compared to 8HQ (SH-SY5Y cells): inferior to 8HQ
Oc1cccc2ccc(F)nc12 [Compound 5] | – | pEC50 [1]: < 3.92; Cu uptake compared to 8HQ (SH-SY5Y cells): inferior to 8HQ
Oc1c(Cl)cc(Cl)c2ccc(COCCCCF)nc12 [Compound 24, 5,7-dichloro-2-((4-fluorobutoxy)methyl)quinolin-8-ol] | 2 | –
Oc1c(Br)cc(F)c2cccnc12 [Compound 16, 7-bromo-5-fluoro-8-hydroxyquinoline] | 3.7 | –
CN(C)Cc1ccc2c(Cl)cc(Cl)c(O)c2n1 [PBT2, 5,7-Dichloro-2-((dimethylamino)methyl) 8-quinolinol, reference compound] | 2 | benefits in patients [2]: shown benefits

Further compounds by falling EC50 [1], results first:

EC50 [1] [µM] | SMILES | also measured
5.2 | Oc1c(Cl)cc(F)c2cccnc12 [Compound 15, 7-chloro-5-fluoro-8-hydroxyquinoline] | –
4.5 | CN(Cc1cn(CCCF)nn1)Cc1ccc2c(Cl)cc(Cl)c(O)c2n1 [Compound 29, 5,7-dichloro-2-((((1-(3-fluoropropyl)-1H-1,2,3-triazol-4-yl)methyl)(methyl)amino)methyl)quinolin-8-ol] | Cu uptake, fold increase than that of PBT2 (SH-SY5Y cells): 16 fold
3.5 | Oc1c(F)cc(Br)c2cccnc12 [Compound 13, 5-bromo-7-fluoro-8-hydroxyquinoline] | –
2.5 | Oc1c(I)cc(F)c2cccnc12 [Compound 17, 5-fluoro-7-iodo-8-hydroxyquinoline] | –
2.4 | Oc1c(Cl)cc(Cl)c2ccc(COCCF)nc12 [Compound 23, 5,7-dichloro-2-((2-fluoroethoxy)methyl)quinolin-8-ol] | –
2.3 | Oc1c(F)cc(I)c2cccnc12 [Compound 14, 7-fluoro-5-iodo-8-hydroxyquinoline] | –
1.8 | Oc1c(I)cc(Cl)c2cccnc12 [Clioquinol (CQ), 5-chloro-7-iodo-quinolin-8-ol] | rate of cognitive decline (AD patients; AD patients): attenuated; tolerability (AD patients): well tolerated
